Values joined by “and” are separate entries in the source; they are usually repeats but may differ in a detail not shown here. Equal entries are not always repeated. Where two headings read alike, the source gives them in different places.
Tests used:
[1] = tested on: bloodstream form of T. brucei strain Lister 427; experiment: T. b. brucei 427 growth inhibition assay (LILiT, Alamar Blue); assay type: cell-based; settings: Trypanosoma brucei
Procedure: The ‘in vitro’ parasite killing assay used the BSF of the non-human pathogenic subspecies T. b. brucei, strain Lister 427, cultured in HMI-9 medium containing 10% foetal bovine serum. A second cell line, T. b. brucei GVR35-Luc2 which constitutively expresses firefly luciferase was grown in Modified HMI-9 plus 20% foetal calf serum supplemented with 20% Serum Plus (Sigma) and 0.15 μg mL^−1 puromycin. Both strains of trypanosomes were cultured in T-25 vented cap flasks at 37 °C and 5% CO2.
The ‘in vitro’ parasite killing assay used the bloodstream-form of the non-human pathogenic subspecies T. b. brucei, strain Lister 427 (a gift from Professor Keith Matthews) which was cultured in HMI-9 medium containing 10% fetal bovine serum (FBS). A second cell line, T. b. brucei GVR35-Luc2 which constitutively expresses firefly luciferase (5) was grown in Modified HMI-9 plus 20% fetal calf serum (FCS) supplemented with 20% Serum Plus (Sigma) and 0.15 μg/ml puromycin as described previously (5). Both strains of trypanosomes were cultured in T-25 vented cap flasks at 37 °C and 5% CO2.
Growth inhibition tests of bloodstream-form T. b. brucei Lister 427 were carried out using the LILiT (long incubation low inoculation test) method (6). The parasites were cultured in complete HMI-9 medium containing 10% FBS in 96-well plates (Greiner Inc.) with approximately 2500 trypanosomes per well. A 3-fold dilution series (in the range from 45 µM – 0.020 µM) of the inhibitor compounds were prepared in the plate; the maximal concentration of DMSO was 0.45%. After 72 hours of incubation at 37 °C and 5% CO2, 50 µl Alamar Blue (0.2% diluted with Dulbecco’s-phosphate buffered saline (D-PBS, Sigma) was added to each well and plates were incubated at 37 °C and 5% CO2 for 4 hours. Fluorescence was read on the BMG multiplate reader using an excitation wavelength of 530 nm and an emission wavelength of 590 nm.

[2] = target: T1, T. brucei phosphofructokinase (TbPFK) (Trypanosoma brucei brucei, UniProt O15648); experiment: ADP-Glo assay for measuring PFK inhibition; assay type: biochemical
T1 construct: made in house; host or cells: Escherichia coli C41 (pET28a, codon optimised gene)
T1 sequence (O15648 1-487): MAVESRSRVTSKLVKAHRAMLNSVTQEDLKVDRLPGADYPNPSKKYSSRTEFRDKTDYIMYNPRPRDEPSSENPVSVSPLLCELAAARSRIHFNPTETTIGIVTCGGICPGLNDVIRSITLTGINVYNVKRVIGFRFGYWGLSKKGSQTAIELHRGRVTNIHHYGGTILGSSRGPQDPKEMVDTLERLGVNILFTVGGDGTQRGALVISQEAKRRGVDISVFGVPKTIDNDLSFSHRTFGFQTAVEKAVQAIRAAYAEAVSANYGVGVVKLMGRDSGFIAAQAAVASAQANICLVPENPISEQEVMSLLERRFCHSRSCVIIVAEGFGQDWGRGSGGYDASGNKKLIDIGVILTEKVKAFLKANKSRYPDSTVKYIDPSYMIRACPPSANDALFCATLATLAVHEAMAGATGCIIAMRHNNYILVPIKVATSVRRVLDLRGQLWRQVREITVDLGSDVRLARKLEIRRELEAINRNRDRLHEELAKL
Procedure: Parasite enzyme kinetic data were measured using N-terminally His6-tagged TbPFK expressed in Escherichia coli C41 cells, using a codon optimised gene inserted in a pET28a vector (Supplementary Methods 1). Recombinant human PFKs were expressed in PFK-deficient Saccharomyces cerevisiae. PFK enzyme inhibition was measured using an ADP-Glo^TM assay (Promega) in a 96-well plate format (Supplementary Methods 2.1), using a Spectramax© M5 Multimode Plate Reader to measure luminescence values which were converted to ADP concentrations. IC50 values were determined using a sigmoidal curve fitting algorithm in Kaleidagraph 4 (Supplementary Fig. 1). Mode of action studies were carried out using a linked enzyme assay coupling the forward reaction of TbPFK to the M1 isoform of human pyruvate kinase followed by lactate dehydrogenase. The change in UV absorbance at 340 nm resulting from the conversion of NADH to NAD^+ was measured at 25 °C in ‘kinetic mode’ on a Spectramax© M5 Multimode plate reader. Initial velocities were plotted against substrate concentration to give curves showing non-competitive inhibition (Supplementary Fig. 2). An alternative linked enzyme assay was developed to control for the potential inhibitory activity of ATP on human PFK (Supplementary Methods 2.3).
The ADP-Glo™ end-point assay kit manufactured by Promega (cat. No. V9102) was used to measure ADP produced in the phosphofructokinase reaction:
Following this kinase reaction, the addition of a reagent results in any unused background ATP being removed and the reaction is sequestered. A second reagent is then added to convert the remaining ADP to ATP which is coupled to the luciferase/luciferin reaction to produce light. ‘Ultrapure’ ATP and ADP from Promega were used to reduce background noise. All reagents additional to those provided in the Promega ADP-Glo™ kit were purchased from Sigma-Aldrich.
The assay buffer comprised 50 mM triethanolamine (TEA), 10 mM MgCl2, 5 mM KCl, 0.1% w/v bovine serum albumin (BSA), 0.005% Tween-20, 1% DMSO, pH 7.4. A 3-fold serial dilution of 250x inhibitor stocks was carried out in 100% DMSO. 2 µl of these dilutions was added to 198 µl assay buffer and mixed well using a multichannel pipette. […] Concentration ranges of inhibitor compounds were 40 - 0.006 µM (final concentration, 1% DMSO). The PFK reaction in the presence of inhibitor was carried out using 10 µl of 1 µg/ml PFK (final concentration 0.4 µg/ml) which was added to 10 µl of the 1% DMSO inhibitor compound serial dilutions in a white, non-binding 96-well plate (Greiner BioOne 655904). CTCB-001 was used as a positive control at a final concentration of 5 µM. Assay buffer containing 1% DMSO was added instead of inhibitor compound for the negative control. The protein/inhibitor mixture was incubated for 10 minutes at room temperature (RT). The kinase reaction was started by adding a 5x ATP/F6P stock in assay buffer (final concentrations 0.5 mM F6P and 0.1 mM ATP). Plates were then sealed, centrifuged at 560 x g for 30 seconds and incubated at RT for 30 minutes. 25 µl of ‘ADP-Glo™ Reagent’ was then added to each well, mixed using a multichannel pipette and incubated at room temperature for 40 minutes. 50 µl of ‘Kinase Detection Reagent’ was added and incubated for 50 minutes at RT. The luminescence was recorded using a Spectramax© M5 Multi-mode Plate Reader (Molecular Devices) in single-point mode, with an integration time of 750 milliseconds. The luminescence values were converted to ADP concentration using a standard calibration curve for ADP. The resulting ADP concentrations were plotted as a function of inhibitor compound concentration using Kaleidagraph 4.0 software. The data were analysed using non-linear regression and a sigmoidal curve was fitted (Supplementary Figure 1) to determine the IC50. Kaleidagraph 4.0 uses the Levenberg-Marquardt algorithm in an iterative procedure to fit non-linear curves. […] The slope of the curve at the midpoint (m4) was set to 1.

TbPFK = target: T2, TbPFK (Trypanosoma brucei brucei, UniProt O15648); settings: amidosulfonamide series; cited from earlier work
T2 construct: made in house; host or cells: Escherichia coli C41 (pET28a, codon optimised gene)
T2 sequence (O15648 1-487): T1 sequence (O15648 1-487)

T. b. brucei GVR35-VSL2 = experiment: Mouse model of stage 1 and stage 2 HAT, bioluminescence imaging; assay type: in vivo, T. b. brucei in female CD-1 mice
Excerpt: An alternative mouse model for stage 1 (acute) and stage 2 (CNS-involved) HAT has been developed using a transgenic cell line derived from the pleiomorphic T. b. brucei GVR35 that expresses red-shifted firefly luciferase[17],[18]. […] T. b. brucei GVR35-infected mice present stage 1 disease by day 7 post infection with progression to stage 2 by day 21. By injecting the mouse with luciferin, the level of parasitaemia can be estimated in real time by monitoring the luminescence. Unlike monomorphic Lister 427 T. b. brucei, the pleiomorphic GVR35 T. b. brucei is controlled by a quorum-sensing mechanism resulting in the significant increase in survival time in mice and lower blood parasitaemia that occurs in waves. This extended survival time is also accompanied by parasite dissemination to multiple tissues and organs, including the skin, adipose tissue, lung and brain, with parasite loads increasing over time[17],[19].
For the mouse model of stage 1 and stage 2 HAT T. b. brucei GVR35-VSL2 parasites (3 × 10^4) were injected into a single donor female CD-1 mouse intraperitoneally. Once infection was established, starting on day 7 for stage 1 studies and day 21 for stage 2 studies, mice were either left untreated (n = 3) or dosed by oral gavage with CTCB compound in Cremophor EL: EtOH: D-PBS (30:10:60 v/v; n = 6). Progression of T. b. brucei GVR35-VSL2 infection was monitored primarily by in vivo bioluminescence imaging of infected mice using an IVIS Spectrum (PerkinElmer). For stage 1 studies, imaging of infected mice was performed before treatment on day 7 post infection and on days following the treatment (days 8, 9 and 14). Imaging on groups of three mice was performed 12 min after intraperitoneal injection of 150 mg kg^−1 D-luciferin (Promega) in PBS. For stage 2 studies, mice were imaged prior to treatment on day 21, and subsequently on days 22 and 23. On day 23, 24 h after the final dose, mice were sacrificed by cervical dislocation and perfused with PBS containing 15 g L^−1 glucose to allow ex vivo imaging of whole brains (Supplementary Figs. 12 and 13).
Female CD-1 (Charles River UK; 6-8 weeks old) mice were infected with 3 × 10^4 T. b. brucei GVR35-VSL2 bloodstream form parasites intraperitoneally. T. b. brucei GVR35-VSL2 expresses red-shifted luciferase and provides a better signal for imaging (13). Once infection was established, starting on day 7 for Stage 1 studies and day 21 for Stage 2 studies, mice were either left untreated (n=3) or dosed by oral gavage with CTCB compound in Cremophor EL: EtOH : D-PBS (30:10:60 v/v) (n = 6). Additional groups of mice (n=3) that received either a single intraperitoneal dose of diminazene aceturate (Sigma-Aldrich) at 40 mg/kg in sterile water or 0.1 ml melarsoprol gel (14) containing 3.6 mg melarsoprol, applied topically for 3 consecutive days, served as controls for Stage 1 and Stage 2 treatment studies, respectively.
Progression of T. b. brucei GVR35-VSL2 infection was monitored primarily by in vivo bioluminescence imaging of infected mice using an IVIS Spectrum (PerkinElmer) as described previously (5). For stage 1 studies, imaging of infected mice was performed before treatment on day 7 post-infection and in days following the treatment (days 8, 9 and 14). Imaging on groups of three mice was performed 12 minutes after intraperitoneal injection of 150 mg/kg D-luciferin (Promega) in PBS. For stage 2 studies, mice were imaged prior to treatment on day 21 and subsequently on days 22 and 23. On day 23, 24 hours after the final dose, mice were sacrificed by cervical dislocation and perfused with phosphate-buffered saline containing 15 g.L^−1 glucose to allow ex vivo imaging of whole brains. To this end, 100 μl D-luciferin was administered onto the brain surface and imaging performed immediately thereafter.

[3] = 72 h, read-out: EC50 (µM) in vitro parasite killing of bloodstream form T. brucei Lister 427 (Tbb EC50), 72 h, Alamar Blue
[4] = Average IC50 (µM), source data for Fig. 2 and Table 1
[5] = IC50 (µM), single dated measurement, source data
[6] = source data for Fig. 2 and Table 1, read-out: Average IC50
[7] = source data, read-out: IC50 (µM), single dated measurement
[8] = ADP-Glo, mean ± SD, read-out: IC50 (µM) for inhibition of T. brucei phosphofructokinase (PFK IC50)

Row | SMILES | EC50 [1, 3] [µM] | IC50 [2, 6] [µM] | IC50 [2, 7] | also measured
1 | Clc1ccc(Cn2ccnc2)cc1Cl [CTCB-12] | 8.9 ± 0.2 | – | – | L.E. ligand efficiency [2]: 0.51; IC50 [2, 4]: 0.83 µM; IC50 ([2]; IC50 (µM) for inhibition of T. brucei phosphofructokinase (PFK IC50), ADP-Glo, mean ± SD): 0.83 µM; IC50 [2, 5]: 0.83 µM
2 | CNC[C@@H](C)n1ccc2c(ccn2Cc2ccc(Cl)c(Cl)c2)c1=O [CTCB-481] | 0.15 ± 0.05 | 0.12 | 0.122 µM | –
3 | O=c1[nH]ccc2c1ccn2Cc1ccc(Cl)c(Cl)c1 [CTCB-360] | 1.1 ± 0.1 | 0.07 | 0.041 µM and 0.049 µM and 0.091 µM and 0.059 µM and 0.112 µM | –
4 | Clc1ccc(Cn2cnc3cnccc32)cc1Cl [CTCB107] | 8.5 ± 0.6 | 0.6 | 0.6 µM | IC50 [2, 8]: 1.14 ± 0.76 µM
5 | O=c1c2ccn(Cc3ccc(Cl)c(Cl)c3)c2ccn1CCO [CTCB-401] | 0.91 ± 0.04 | – | – | EC50 ([1]; read-out: EC50 against the parasite): 0.9 µM; IC50 ([2]; read-out: IC50 TbPFK): 0.073 µM
6 | O=C(Cc1ccc(Cl)c(Cl)c1)Nc1ccc(S(=O)(=O)Nc2ccon2)cc1 [CTCB-001] | 20.2 ± 2.1 | – | – | IC50 [2, 4]: 0.25 µM; IC50 [2, 5]: 194 nM (2×) and 221 nM and 189 nM and 230 nM and 436 nM and 223 nM and 261 nM (2×); IC50 (TbPFK): ~0.2 µM
7 | Nc1nc(N)nc(Nc2ccc([As]3SCC(CO)S3)cc2)n1 (stereo not shown) [Melarsoprol, melarsoprol, reference compound] | – | – | – | Whole body bioluminescence - Total Flux (T. b. brucei GVR35-VSL2; D21 pre-treatment, single mice): 9.807E+10 p/s and 6.826E+10 p/s and 5.548E+10 p/s; Side head bioluminescence - Total Flux (T. b. brucei GVR35-VSL2; D23, individual mice, Supp_Fig13): 2.996E+07 p/s and 8.365E+06 p/s and 9.321E+06 p/s; Ex vivo brain bioluminescence - Total Flux (T. b. brucei GVR35-VSL2; D23, single mice): 2.000E+06 p/s and 2.248E+06 p/s and 1.646E+06 p/s; Whole body bioluminescence - Total Flux (T. b. brucei GVR35-VSL2; D23 post-treatment, single mice): 1.530E+07 p/s and 2.111E+07 p/s and 2.252E+07 p/s
8 | CC(CN)n1ccc2c(ccn2Cc2ccc(Cl)c(Cl)c2)c1=O (stereo not shown) [CTCB-457] | 0.27 ± 0.01 | 0.11 | 0.092 µM and 0.122 µM | –
9 | Clc1ccc(Cn2ccc3cnccc32)cc1Cl [CTCB103] | 7.8 ± 0.1 | – | – | IC50 [2, 8]: 0.46 ± 0.03 µM
10 | NCCn1ccc2c(ccn2Cc2ccc(Cl)c(Cl)c2)c1=O [CTCB-421] | 0.54 ± 0.09 | 0.0335 | – | IC50 ([2]; read-out: IC50 TbPFK): 0.03 µM
